Experimental data as given in patent publication US4714705A, “4-nitrogen substituted isoquinolinol compounds having cardiotonic, phosphodiesterase fraction III inhibiting properties and/or renal vasodilating properties” (Ortho Pharmaceutical Corporation, priority 1986, dated 1987).
Where two headings read alike, the source gives them in different places.

Tests used:
adult mongrel dogs [1] = assay: Acute in vivo cardiotonic activity in anesthetized dogs; design: species or system dog (adult mongrel); conditions: Canis lupus familiaris, relative to controls; for change in vivo at 0.12 mg/kg: 0.12 mg/kg intravenous; for change in vivo at 0.875 mg/kg: 0.875 mg/kg intravenous; for change in vivo at 1.875 mg/kg: 1.875 mg/kg intravenous; for change in vivo at 0.125 mg/kg: 0.125 mg/kg intravenous; for change in vivo at 0.375 mg/kg: 0.375 mg/kg intravenous; for change in vivo at 0.15 mg/kg: 0.150 mg/kg intravenous
Protocol: The acute in vivo cardiotonic activity of compounds prepared according to the present invention was determined according to a modification of the procedure described by Alousi et al., Circ. Res., 45, 666 (1979).
In particular, adult mongrel dogs were anesthetized with sodium pentobarbital and were artificially respired. Arterial pressure was monitored via a femoral artery, and the pulse pressure was used to trigger a cardiotachometer for heart rate. Left ventricular pressure was determined with a Millar catheter, and dP/dt (the change in ventricular pressure with time) was derived. Cardiac output was determined by measuring ascending aortic blood flow with an electromagnetic flow probe, and myocardial contractile force was measured with a Walton Brodie strain gauge sutured to the right ventricle. Lead II EKG was also recorded.
A standard dose (10 μ/kg/min) of dopamine was administered to assess myocardial responsiveness.
Compounds of the invention were administered by intravenous infusion or bolus oral administration, and the effects on cardiovascular parameters were determined.
Dose related effects on the test compound on blood pressure (BP), heart rate (HR), maximum change in left ventricular pressure with time (dP/dt max), % change in cardiac force (CF) and the increase in mean arterial blood pressure relative to controls (MABP) were compared to pretreatment control values, expressed as a % change and rated for activity. Statistical evaluations were made using the appropriate parametric test against controls.

adult mongrel dogs [2] = assay: Renal vasodilating activity in anesthetized dogs; format: in vivo, dog (adult mongrel); conditions: Canis lupus familiaris; for change in vivo at 6.2 mg/kg: 6.2 mg/kg intravenous; for change in vivo at 1.2 mg/kg: 1.2 mg/kg intravenous; for change in vivo at 0.04 mg/kg: 0.04 mg/kg intravenous; for change in vivo at 0.14 mg/kg: 0.14 mg/kg intravenous; for change in vivo at 0.34 mg/kg: 0.34 mg/kg intravenous; for change in vivo at 0.2 mg/kg: 0.2 mg/kg intravenous
Protocol: Goldberg et al, J. Pharmacol. Exp. Ther., 163, 188 (1968), performed an investigation of the structural requirements for dopamine-like renal vasodilation of phenethylamines and apmorphine. The following procedure is a variation of the assay described in that report.
Adult mongrel dogs were anesthetized and surgically prepared for electromagnetic measurement of renal artery blood flow. A carotid artery was cannulated for measuring arterial blood pressure, and drugs were administered intravenously or intraarterially (via the renal artery). Heart rate was monitored with a cardiotachometer. Renal vascular resistance was calculated as the ratio of mean arterial blood pressure/renal artery blood flow. Dopamine was infused intravenously at […] for ten minutes (at an infusion rate of about 1 ml/min) to determine responsiveness of each dog to renal dopamine receptor stimulation. Cumulative dose-response data were obtained by infusing a compound of this invention at progressively increasing (usually three-fold) infusion rates, esch dose being infused for five minutes. The maximum percent increase from pre-drug control in renal artery blood flow (or a decrease in renal vascular resistance) was determined for each infusion dose.
RBF values are percent increase in renal blood flow. RVR values are percent increase in renal vascular resistance. MABP and HR are increases in mean arterial blood pressure and heart rate, respectively, relative to controls.

[3] = read-out: CF, percent change in cardiac force
[4] = read-out: HR, percent change in heart rate
[5] = read-out: MABP, mean arterial blood pressure
[6] = read-out: dP/dt, maximum change left ventricular pressure with time
[7] = relative to controls, read-out: HR, percent change in heart rate
[8] = relative to controls, read-out: MABP, mean arterial blood pressure
[9] = relative to controls, read-out: RBF, renal blood flow
[10] = relative to controls, read-out: RVR, renal vascular resistance

## CCOc1cc2c([N+](=O)[O-])c(O)nc(C)c2cc1OC [BAN]
Adult mongrel dogs [1]; [3]
  change in vivo at 0.12 mg/kg: 49%
Adult mongrel dogs [1]; [4]
  change in vivo at 0.12 mg/kg: 4%
Adult mongrel dogs [1]; [5]
  change in vivo at 0.12 mg/kg: -18%
Adult mongrel dogs [1]; [6]
  change in vivo at 0.12 mg/kg: 12%
Adult mongrel dogs [2]; [7]
  change in vivo at 6.2 mg/kg: -5%
Adult mongrel dogs [2]; [8]
  change in vivo at 6.2 mg/kg: 1%
Adult mongrel dogs [2]; [9]
  change in vivo at 6.2 mg/kg: 61%
Adult mongrel dogs [2]; [10]
  change in vivo at 6.2 mg/kg: -37%

## COc1cc2c([N+](=O)[O-])c(O)nc(C)c2c(OC)c1OC [BE]
Adult mongrel dogs [1]; [3]
  change in vivo at 0.875 mg/kg: 84%
Adult mongrel dogs [1]; [4]
  change in vivo at 0.875 mg/kg: 18%
Adult mongrel dogs [1]; [5]
  change in vivo at 0.875 mg/kg: -22%
Adult mongrel dogs [1]; [6]
  change in vivo at 0.875 mg/kg: 38%
Adult mongrel dogs [2]; [7]
  change in vivo at 1.2 mg/kg: 32%
Adult mongrel dogs [2]; [8]
  change in vivo at 1.2 mg/kg: -26%
Adult mongrel dogs [2]; [9]
  change in vivo at 1.2 mg/kg: 60%
Adult mongrel dogs [2]; [10]
  change in vivo at 1.2 mg/kg: -52%

## COc1cc2cnc(O)c(NC(C)=O)c2cc1OC [BF]
Adult mongrel dogs [1]; [3]
  change in vivo at 1.875 mg/kg: 23%
Adult mongrel dogs [1]; [4]
  change in vivo at 1.875 mg/kg: 7%
Adult mongrel dogs [1]; [5]
  change in vivo at 1.875 mg/kg: 1%
Adult mongrel dogs [1]; [6]
  change in vivo at 1.875 mg/kg: 38%
Adult mongrel dogs [2]; [7]
  change in vivo at 6.2 mg/kg: -8%
Adult mongrel dogs [2]; [8]
  change in vivo at 6.2 mg/kg: 14%
Adult mongrel dogs [2]; [9]
  change in vivo at 6.2 mg/kg: 30%
Adult mongrel dogs [2]; [10]
  change in vivo at 6.2 mg/kg: -12%

## CCOc1cc2c(C)nc(O)c([N+](=O)[O-])c2cc1OC [BH]
Adult mongrel dogs [1]; [3]
  change in vivo at 0.125 mg/kg: 134%
Adult mongrel dogs [1]; [4]
  change in vivo at 0.125 mg/kg: 18%
Adult mongrel dogs [1]; [5]
  change in vivo at 0.125 mg/kg: -24%
Adult mongrel dogs [1]; [6]
  change in vivo at 0.125 mg/kg: 74%
Adult mongrel dogs [2]; [7]
  change in vivo at 0.04 mg/kg: 19%
Adult mongrel dogs [2]; [8]
  change in vivo at 0.04 mg/kg: -10%
Adult mongrel dogs [2]; [9]
  change in vivo at 0.04 mg/kg: 25%
Adult mongrel dogs [2]; [10]
  change in vivo at 0.04 mg/kg: -28%

## CCCCOc1cc2c(C)nc(O)c([N+](=O)[O-])c2cc1OC [BI]
Adult mongrel dogs [1]; [3]
  change in vivo at 0.375 mg/kg: 118%
Adult mongrel dogs [1]; [4]
  change in vivo at 0.375 mg/kg: 30%
Adult mongrel dogs [1]; [5]
  change in vivo at 0.375 mg/kg: -35%
Adult mongrel dogs [1]; [6]
  change in vivo at 0.375 mg/kg: 8%
Adult mongrel dogs [2]; [8]
  change in vivo at 0.14 mg/kg: -8%
Adult mongrel dogs [2]; [9]
  change in vivo at 0.14 mg/kg: 16%
Adult mongrel dogs [2]; [10]
  change in vivo at 0.14 mg/kg: -18%

## CCOc1cc2c(C)nc(O)c(NC(C)=O)c2cc1OC [BJ]
Adult mongrel dogs [1]; [3]
  change in vivo at 1.875 mg/kg: 21%
Adult mongrel dogs [1]; [4]
  change in vivo at 1.875 mg/kg: -3%
Adult mongrel dogs [1]; [5]
  change in vivo at 1.875 mg/kg: 1%
Adult mongrel dogs [1]; [6]
  change in vivo at 1.875 mg/kg: 8%
Adult mongrel dogs [2]; iv, read-out: HR, percent change in heart rate
  change in vivo at 6.34 mg/kg: -16%
Adult mongrel dogs [2]; 6.34 mg/kg intravenous, relative to controls, read-out: MABP, mean arterial blood pressure
  change in vivo at 6.34 mg/kg: -4%
Adult mongrel dogs [2]; 6.34 mg/kg intravenous, relative to controls, read-out: RBF, renal blood flow
  change in vivo at 6.34 mg/kg: 18%
Adult mongrel dogs [2]; 6.34 mg/kg intravenous, relative to controls, read-out: RVR, renal vascular resistance
  change in vivo at 6.34 mg/kg: -19%

## CCOc1cc2c(C)nc(O)c([N+](=O)[O-])c2cc1OCC [BK]
Adult mongrel dogs [1]; [3]
  change in vivo at 0.375 mg/kg: 62%
Adult mongrel dogs [1]; [4]
  change in vivo at 0.375 mg/kg: 11%
Adult mongrel dogs [1]; [5]
  change in vivo at 0.375 mg/kg: -2%
Adult mongrel dogs [1]; [6]
  change in vivo at 0.375 mg/kg: 22%
Adult mongrel dogs [2]; [7]
  change in vivo at 0.34 mg/kg: 3%
Adult mongrel dogs [2]; [8]
  change in vivo at 0.34 mg/kg: -21%
Adult mongrel dogs [2]; [9]
  change in vivo at 0.34 mg/kg: 14%
Adult mongrel dogs [2]; [10]
  change in vivo at 0.34 mg/kg: -30%

## COc1cc2c(-c3ccccc3)nc(O)c([N+](=O)[O-])c2cc1OC [BL]
Adult mongrel dogs [1]; [3]
  change in vivo at 1.875 mg/kg: 10%
Adult mongrel dogs [1]; [4]
  change in vivo at 1.875 mg/kg: -29%
Adult mongrel dogs [1]; [5]
  change in vivo at 1.875 mg/kg: -15%
Adult mongrel dogs [1]; [6]
  change in vivo at 1.875 mg/kg: 11%
Adult mongrel dogs [2]; [7]
  change in vivo at 0.34 mg/kg: 29%
Adult mongrel dogs [2]; [8]
  change in vivo at 0.34 mg/kg: 6%
Adult mongrel dogs [2]; [9]
  change in vivo at 0.34 mg/kg: 13%
Adult mongrel dogs [2]; [10]
  change in vivo at 0.34 mg/kg: -5%

## COc1cc2c(C)nc(O)c([N+](=O)[O-])c2cc1OC [Compound BA, 3-Hydroxy-6,7-dimethoxy-1-methyl-4-nitroisoquinoline]
Adult mongrel dogs [1]; [3]
  change in vivo at 0.15 mg/kg: 92%
Adult mongrel dogs [1]; [4]
  change in vivo at 0.15 mg/kg: 8%
Adult mongrel dogs [1]; [5]
  change in vivo at 0.15 mg/kg: -19%
Adult mongrel dogs [1]; [6]
  change in vivo at 0.15 mg/kg: 63%
Adult mongrel dogs [2]; [7]
  change in vivo at 0.2 mg/kg: 83%
Adult mongrel dogs [2]; [8]
  change in vivo at 0.2 mg/kg: -12%
Adult mongrel dogs [2]; [9]
  change in vivo at 0.2 mg/kg: 14%
Adult mongrel dogs [2]; [10]
  change in vivo at 0.2 mg/kg: -23%

## COc1cc2c(C)nc(O)c(N)c2cc1OC [Compound BBQ, 4-Amino-3-hydroxy-6,7-dimethoxy-1-methylisoquinoline]
Adult mongrel dogs [1]; [3]
  change in vivo at 0.875 mg/kg: 99%
Adult mongrel dogs [1]; [4]
  change in vivo at 0.875 mg/kg: 7%
Adult mongrel dogs [1]; [5]
  change in vivo at 0.875 mg/kg: -5%
Adult mongrel dogs [1]; [6]
  change in vivo at 0.875 mg/kg: 106%
Adult mongrel dogs [2]; [7]
  change in vivo at 1.2 mg/kg: 4%
Adult mongrel dogs [2]; [8]
  change in vivo at 1.2 mg/kg: 6%
Adult mongrel dogs [2]; [9]
  change in vivo at 1.2 mg/kg: 22%
Adult mongrel dogs [2]; [10]
  change in vivo at 1.2 mg/kg: -12%

## Cc1nc(O)c([N+](=O)[O-])c2cc3c(cc12)OCO3 [Compound BB]
Adult mongrel dogs [1]; [3]
  change in vivo at 1.875 mg/kg: 28%
Adult mongrel dogs [1]; [4]
  change in vivo at 1.875 mg/kg: -17%
Adult mongrel dogs [1]; [5]
  change in vivo at 1.875 mg/kg: -8%
Adult mongrel dogs [1]; [6]
  change in vivo at 1.875 mg/kg: -1%
Adult mongrel dogs [2]; [7]
  change in vivo at 6.2 mg/kg: 90%
Adult mongrel dogs [2]; [8]
  change in vivo at 6.2 mg/kg: -16%
Adult mongrel dogs [2]; [9]
  change in vivo at 6.2 mg/kg: 19%
Adult mongrel dogs [2]; [10]
  change in vivo at 6.2 mg/kg: -30%

## O=[N+]([O-])c1c(O)ncc2cc3c(cc12)OCO3 [Compound BC]
Adult mongrel dogs [1]; [3]
  change in vivo at 1.875 mg/kg: 16%
Adult mongrel dogs [1]; [4]
  change in vivo at 1.875 mg/kg: 0%
Adult mongrel dogs [1]; [5]
  change in vivo at 1.875 mg/kg: -7.5%
Adult mongrel dogs [1]; [6]
  change in vivo at 1.875 mg/kg: 22%
Adult mongrel dogs [2]; [7]
  change in vivo at 1.2 mg/kg: -6%
Adult mongrel dogs [2]; [8]
  change in vivo at 1.2 mg/kg: -14%
Adult mongrel dogs [2]; [9]
  change in vivo at 1.2 mg/kg: 20%
Adult mongrel dogs [2]; [10]
  change in vivo at 1.2 mg/kg: -28%
